Assay results from patent US20250179059A1 (The Regents of the University of California, priority 2021, published 2025).

How the values were obtained:
[1] = tested on: human SKM-1 acute myeloid leukemia cells; experiment: SKM-1 antiproliferation cell-based assay (ATPlite); conditions: Homo sapiens, SKM-1, 96 h, SKM-1 antiproliferation assay, 4 days, Table C2
Summary of the method: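 Log-phase cells in RPMI 1640/15% FBS were seeded at 34722 cells/mL and exposed for 4 days to nine-concentration DMSO serial dilutions in triplicate. Viability was read as ATP luminescence (ATPlite 1step), and IC50 values came from variable-slope non-linear regression.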

[2] = target: T1, human BRD4 bromodomain II (Homo sapiens, UniProt O60885); experiment: Bromodomain binding assay (AlphaScreen), BRD4 BDII; conditions: AlphaScreen assay, Table C2; read-out: BRD4 BDII IC50
T1 construct: human BRD4 bromodomain II [based on Genbank NM_058243, residues 349-460]; host or cells: E. coli
Summary of the method: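 AlphaScreen competition with biotinylated H4 peptide (aa 1-21, K5/K8/K12/K16Ac), using nickel-chelate acceptor and streptavidin donor beads. Targets were His6-BRD4 BDI (44-170) or BDII (349-460), with a 30 min compound preincubation over a 10-point 3-fold series. IC50 was fitted from percentage peptide binding.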

SMILES	GI50 [1]	IC50 [2]
CN1CCN(c2ccc(-c3cc(F)cc(-c4ccnc(NCCN)c4)c3O)cc2Cl)C1=O [Example 363, 1-(3′-(2-((2-aminoethyl)amino)pyridin-4-yl)-3-chloro-5′-fluoro-2′-hydroxy-[1,1′-biphenyl]-4-yl)-3-methylimidazolidin-2-one]	300 to 3000 nM	10 to 100 nM
CC(C)N1CCN(c2ccc(-c3cc(F)cc(-c4ccnc(N5CCNCC5)c4)c3O)cc2Cl)C1=O [Example 364, 1-(3-chloro-5′-fluoro-2′-hydroxy-3′-(2-(piperazin-1-yl)pyridin-4-yl)-[1,1′-biphenyl]-4-yl)-3-isopropylimidazolidin-2-one]	≥ 3000 nM	> 100 nM
CC1=CCN(c2ccc(-c3cc(F)cc(-c4ccnc(N5CCNCC5)c4)c3O)cc2Cl)C1=O [Example 366, 1-(3-chloro-5′-fluoro-2′-hydroxy-3′-(2-(piperazin-1-yl)pyridin-4-yl)-[1,1′-biphenyl]-4-yl)-3-methyl-1,5-dihydro-2H-pyrrol-2-one]	30 to 300 nM	1 to 10 nM
C#CCN1CCN(c2ccc(-c3cc(F)cc(-c4ccnc(N5CCNCC5)c4)c3O)cc2Cl)C1=O [Example 367, 1-(3-chloro-5′-fluoro-2′-hydroxy-3′-(2-(piperazin-1-yl)pyridin-4-yl)-[1,1′-biphenyl]-4-yl)-3-(prop-2-yn-1-yl)imidazolidin-2-one]	300 to 3000 nM	> 100 nM
CN1CCN(c2ccc(-c3cccc(-c4cc(C5CC5)nc(N5CCNCC5)c4)c3O)cc2Cl)C1=O [Example 368, 1-(3-chloro-3′-(2-cyclopropyl-6-(piperazin-1-yl)pyridin-4-yl)-2′-hydroxy-[1,1′-biphenyl]-4-yl)-3-methylimidazolidin-2-one]	30 to 300 nM	1 to 10 nM
CN1CCN(c2ccc(-c3cccc(-c4ccc5[nH]c6c(c5c4)CNCC6)c3O)cc2Cl)C1=O [Example 369, 1-(3-chloro-2′-hydroxy-3′-(2,3,4,5-tetrahydro-1H-pyrido[4,3-b]indol-8-yl)-[1,1′-biphenyl]-4-yl)-3-methylimidazolidin-2-one]	≥ 3000 nM	10 to 100 nM
CC(=O)NCc1ncc(-c2cc(F)cc(-c3ccc(N4CCN(C)C4=O)c(Cl)c3)c2O)cc1N1CCNCC1 [Example 370, N-((5-(3′-chloro-5-fluoro-2-hydroxy-4′-(3-methyl-2-oxoimidazolidin-1-yl)-[1,1′-biphenyl]-3-yl)-3-(piperazin-1-yl)pyridin-2-yl)methyl)acetamide]	30 to 300 nM	1 to 10 nM
O=C1OCCN1c1ccc(-c2cc(F)cc(-c3ccnc(N4CCNCC4)c3)c2O)cc1Cl [Example 371, 3-(3-chloro-5′-fluoro-2′-hydroxy-3′-(2-(piperazin-1-yl)pyridin-4-yl)-[1,1′-biphenyl]-4-yl)oxazolidin-2-one]	300 to 3000 nM	10 to 100 nM
CN1CCN(c2ccc(-c3cc(F)cc(-c4cc(N5CCNCC5)c(=O)n(C)c4)c3O)cc2Cl)C1=O [Example 372, 5-(3′-chloro-5-fluoro-2-hydroxy-4′-(3-methyl-2-oxoimidazolidin-1-yl)-[1,1′-biphenyl]-3-yl)-1-methyl-3-(piperazin-1-yl)pyridin-2(1H)-one]	30 to 300 nM	1 to 10 nM
O=C1NCCN1c1ccc(-c2cc(F)cc(-c3ccnc(N4CCNCC4)c3)c2O)cc1Cl [Example 373, 1-(3-chloro-5′-fluoro-2′-hydroxy-3′-(2-(piperazin-1-yl)pyridin-4-yl)-[1,1′-biphenyl]-4-yl)imidazolidin-2-one]	300 to 3000 nM	10 to 100 nM
CCc1cc(-c2cccc(-c3ccc(N4CCN(C)C4=O)c(Cl)c3)c2O)cc(N2CCNCC2)n1 [Example 374, 1-(3-chloro-3′-(2-ethyl-6-(piperazin-1-yl)pyridin-4-yl)-2′-hydroxy-[1,1′-biphenyl]-4-yl)-3-methylimidazolidin-2-one]	300 to 3000 nM	1 to 10 nM
CC(=O)Nc1ccc(-c2cccc(-c3cc(OC4CCC(N)CC4)nc(N4CCNCC4)c3)c2O)cc1F (stereo not drawn) [Example 375, N-(3′-(2-((4-aminocyclohexyl)oxy)-6-(piperazin-1-yl)pyridin-4-yl)-3-fluoro-2′-hydroxy-[1,1′-biphenyl]-4-yl)acetamide]	300 to 3000 nM	10 to 100 nM
COC(=O)c1ncc(-c2cc(F)cc(-c3ccc(N4CCN(C)C4=O)c(Cl)c3)c2O)cc1N1CCNCC1 [Example 376, Methyl 5-(3′-chloro-5-fluoro-2-hydroxy-4′-(3-methyl-2-oxoimidazolidin-1-yl)-[1,1′-biphenyl]-3-yl)-3-(piperazin-1-yl)picolinate]	≥ 3000 nM	> 100 nM
C[C@@H]1CN(c2cc(-c3cc(F)cc(-c4ccc(N5CCN(C)C5=O)c(Cl)c4)c3O)cn(C)c2=O)CCN1 [Example 377, (R)-5-(3′-chloro-5-fluoro-2-hydroxy-4′-(3-methyl-2-oxoimidazolidin-1-yl)-[1,1′-biphenyl]-3-yl)-1-methyl-3-(3-methylpiperazin-1-yl)pyridin-2(1H)-one]	30 to 300 nM	1 to 10 nM
CN1CCN(c2ccc(-c3cc(F)cc(-c4cc(N5CCC[C@H](N)C5)c(=O)n(C)c4)c3O)cc2Cl)C1=O [Example 378, (S)-3-(3-aminopiperidin-1-yl)-5-(3′-chloro-5-fluoro-2-hydroxy-4′-(3-methyl-2-oxoimidazolidin-1-yl)-[1,1′-biphenyl]-3-yl)-1-methylpyridin-2(1H)-one]	30 to 300 nM	1 to 10 nM
CN1CCN(c2ccc(-c3cc(F)cc(-c4ccnc(C5=CCNCC5)c4)c3O)cc2Cl)C1=O [Example 379, 1-(3-chloro-5′-fluoro-2′-hydroxy-3′-(1′,2′,3′,6′-tetrahydro-[2,4′-bipyridin]-4-yl)-[1,1′-biphenyl]-4-yl)-3-methylimidazolidin-2-one]	30 to 300 nM	1 to 10 nM
Cc1cc(-c2cc(F)cc(-c3ccnc(N4CCNCC4)c3)c2O)ccc1N1CCN(C)C1=O [Example 380, 1-(5′-fluoro-2′-hydroxy-3-methyl-3′-(2-(piperazin-1-yl)pyridin-4-yl)-[1,1′-biphenyl]-4-yl)-3-methylimidazolidin-2-one]	30 to 300 nM	1 to 10 nM
CC(=O)N1CCN(c2ccc(-c3cc(F)cc(-c4ccnc(N5CCNCC5)c4)c3O)cc2Cl)C1=O [Example 381, 1-acetyl-3-(3-chloro-5′-fluoro-2′-hydroxy-3′-(2-(piperazin-1-yl)pyridin-4-yl)-[1,1′-biphenyl]-4-yl)imidazolidin-2-one]	300 to 3000 nM	> 100 nM
CCc1ncc(-c2cc(F)cc(-c3ccc(N4CCN(C)C4=O)c(Cl)c3)c2O)cc1N1CCNCC1 [Example 382, 1-(3-chloro-3′-(6-ethyl-5-(piperazin-1-yl)pyridin-3-yl)-5′-fluoro-2′-hydroxy-[1,1′-biphenyl]-4-yl)-3-methylimidazolidin-2-one]	30 to 300 nM	1 to 10 nM
CC(=O)Nc1cc(-c2cccc(-c3ccc(N4CCN(C)C4=O)c(Cl)c3)c2O)cc(N2CCNCC2)n1 [Example 383, N-(4-(3′-chloro-2-hydroxy-4′-(3-methyl-2-oxoimidazolidin-1-yl)-[1,1′-biphenyl]-3-yl)-6-(piperazin-1-yl)pyridin-2-yl)acetamide]	0.3 to 30 nM	1 to 10 nM
CN1CCN(c2c(F)cc(-c3cc(F)cc(-c4ccnc(N5CCNCC5)c4)c3O)cc2F)C1=O [Example 384, 1-methyl-3-(3,5,5′-trifluoro-2′-hydroxy-3′-(2-(piperazin-1-yl)pyridin-4-yl)-[1,1′-biphenyl]-4-yl)imidazolidin-2-one]	300 to 3000 nM	10 to 100 nM
Cc1cc(-c2cc(F)cc(-c3ccnc(N4CCNCC4)c3)c2O)cc(Cl)c1N1CCN(C)C1=O [Example 385, 1-(3-chloro-5′-fluoro-2′-hydroxy-5-methyl-3′-(2-(piperazin-1-yl)pyridin-4-yl)-[1,1′-biphenyl]-4-yl)-3-methylimidazolidin-2-one]	300 to 3000 nM	> 100 nM
Cc1cc(-c2cc(F)cc(-c3ccnc(N4CCNCC4)c3)c2O)cc(Cl)c1N1CCCC1=O [Example 386, 1-(3-chloro-5′-fluoro-2′-hydroxy-5-methyl-3′-(2-(piperazin-1-yl)pyridin-4-yl)-[1,1′-biphenyl]-4-yl)pyrrolidin-2-one]	300 to 3000 nM	> 100 nM
CN1CCN(c2ccc(-c3cc(F)cc(-c4cnc(CO)c(N5CCNCC5)c4)c3O)cc2Cl)C1=O [Example 387, 1-(3-chloro-5′-fluoro-2′-hydroxy-3′-(6-(hydroxymethyl)-5-(piperazin-1-yl)pyridin-3-yl)-[1,1′-biphenyl]-4-yl)-3-methylimidazolidin-2-one]	30 to 300 nM	1 to 10 nM
Cc1ncc(-c2cc(F)cc(-c3ccc(N4CCN(C)C4=O)c(Cl)c3)c2O)cc1N1CCNCC1 [Example 388, 1-(3-chloro-5′-fluoro-2′-hydroxy-3′-(6-methyl-5-(piperazin-1-yl)pyridin-3-yl)-[1,1′-biphenyl]-4-yl)-3-methylimidazolidin-2-one]	30 to 300 nM	1 to 10 nM
CC(=O)Nc1ncc(-c2cc(F)cc(-c3ccc(N4CCN(C)C4=O)c(Cl)c3)c2O)cc1N1CCNCC1 [Example 389, N-(5-(3′-chloro-5-fluoro-2-hydroxy-4′-(3-methyl-2-oxoimidazolidin-1-yl)-[1,1′-biphenyl]-3-yl)-3-(piperazin-1-yl)pyridin-2-yl)acetamide]	30 to 300 nM	1 to 10 nM
CN1CCN(c2ccc(-c3cc(F)cc(-c4cnc(-c5cn[nH]c5)c(N5CCNCC5)c4)c3O)cc2Cl)C1=O [Example 390, 1-(3-chloro-5′-fluoro-2′-hydroxy-3′-(5-(piperazin-1-yl)-6-(1H-pyrazol-4-yl)pyridin-3-yl)-[1,1′-biphenyl]-4-yl)-3-methylimidazolidin-2-one]	300 to 3000 nM	1 to 10 nM
